{"source": "paper PMC12090182", "about": "“Repurposing of the RIPK1-Selective Benzo[1,4]oxazepin-4-one Scaffold for the Development of a Type III LIMK1/2 Inhibitor” (ACS Chemical Biology, 2025)", "format_in_all_cases": "binding", "key": {"AAK1A": {"biological_target": "AAK1A (Homo sapiens, UniProt Q2M2I8)", "sequence (Q2M2I8 27-365)": "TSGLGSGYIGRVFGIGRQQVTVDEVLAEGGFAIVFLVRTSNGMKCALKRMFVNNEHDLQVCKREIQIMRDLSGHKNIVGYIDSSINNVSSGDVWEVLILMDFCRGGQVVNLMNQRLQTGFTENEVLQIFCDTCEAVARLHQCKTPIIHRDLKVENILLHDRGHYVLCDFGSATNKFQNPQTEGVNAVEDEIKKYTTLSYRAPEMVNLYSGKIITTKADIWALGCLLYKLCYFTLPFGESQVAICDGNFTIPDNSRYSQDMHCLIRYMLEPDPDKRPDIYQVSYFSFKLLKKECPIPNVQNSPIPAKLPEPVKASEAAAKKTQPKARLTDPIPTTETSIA", "assay": "DSF selectivity screening", "settings": "10 μM compound", "protocol": "(§1) The assay was performed as previously described.[29],[35] Briefly, recombinant protein kinase domains at a concentration of 2 μM were mixed with a 10 μM compound in a buffer containing 20 mM HEPES, pH 7.5, and 500 mM NaCl. SYPRO Orange (5000×, Invitrogen) was added as a fluorescence probe (1 μL per mL). Subsequently, temperature-dependent protein unfolding profiles were measured using a QuantStudio 5 real-time PCR machine (Thermo Fisher). Excitation and emission filters were set to 465 and 590 nm, respectively. The temperature was raised with a step rate of 3 °C per minute. Data points were analyzed with internal software (Thermal Shift Software version 1.4, Thermo Fisher) using the Boltzmann equation to determine the inflection point of the transition curve (Table S4)."}, "BMXA": {"biological_target": "BMXA (Homo sapiens, UniProt P51813)", "assay": "DSF selectivity screening", "settings": "10 μM compound", "protocol": "as §1"}, "CAMK1DA": {"biological_target": "CAMK1DA (Homo sapiens, UniProt Q8IU85)", "assay": "DSF selectivity screening", "settings": "10 μM compound", "protocol": "as §1"}, "CAMK1GA": {"biological_target": "CAMK1GA (Homo sapiens, UniProt Q96NX5)", "assay": "DSF selectivity screening", "settings": "10 μM compound", "protocol": "as §1"}, "CAMK4A": {"biological_target": "CAMK4A (Homo sapiens, UniProt Q16566)", "sequence (Q16566 whole entry)": "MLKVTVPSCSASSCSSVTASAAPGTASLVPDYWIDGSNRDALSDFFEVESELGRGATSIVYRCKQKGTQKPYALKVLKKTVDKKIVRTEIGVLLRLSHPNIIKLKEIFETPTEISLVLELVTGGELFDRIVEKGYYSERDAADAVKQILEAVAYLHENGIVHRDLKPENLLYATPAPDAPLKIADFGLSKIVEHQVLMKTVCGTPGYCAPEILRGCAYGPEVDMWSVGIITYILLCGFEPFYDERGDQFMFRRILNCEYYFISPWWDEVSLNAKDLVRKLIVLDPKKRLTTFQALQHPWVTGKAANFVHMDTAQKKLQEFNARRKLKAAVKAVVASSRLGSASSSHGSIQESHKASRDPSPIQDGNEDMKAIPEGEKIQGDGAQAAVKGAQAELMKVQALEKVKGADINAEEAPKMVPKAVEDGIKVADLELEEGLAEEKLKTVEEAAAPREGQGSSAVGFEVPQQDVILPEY", "assay": "DSF selectivity screening", "settings": "10 μM compound", "protocol": "as §1"}, "CASKA": {"biological_target": "CASKA (Homo sapiens, UniProt O14936)", "assay": "DSF selectivity screening", "settings": "10 μM compound", "protocol": "as §1"}, "CSNK2A1A": {"biological_target": "CSNK2A1A (Homo sapiens, UniProt P68400)", "assay": "DSF selectivity screening", "settings": "10 μM compound", "protocol": "as §1"}, "DAPK1A": {"biological_target": "DAPK1A (Homo sapiens, UniProt P53355)", "sequence (P53355 1-285)": "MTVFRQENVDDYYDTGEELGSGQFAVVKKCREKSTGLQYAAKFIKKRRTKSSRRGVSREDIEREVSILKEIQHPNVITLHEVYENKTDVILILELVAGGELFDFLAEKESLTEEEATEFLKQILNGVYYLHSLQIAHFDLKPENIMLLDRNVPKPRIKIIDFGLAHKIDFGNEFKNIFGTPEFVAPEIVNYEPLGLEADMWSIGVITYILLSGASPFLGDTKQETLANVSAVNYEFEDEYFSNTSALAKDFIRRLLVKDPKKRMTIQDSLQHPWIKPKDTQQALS", "assay": "DSF selectivity screening", "settings": "10 μM compound", "protocol": "as §1"}, "DAPK3A": {"biological_target": "DAPK3A (Homo sapiens, UniProt O43293)", "assay": "DSF selectivity screening", "settings": "10 μM compound", "protocol": "as §1"}, "DYRK1AA": {"biological_target": "DYRK1AA (Homo sapiens, UniProt Q13627)", "assay": "DSF selectivity screening", "settings": "10 μM compound", "protocol": "as §1"}, "DYRK2A": {"biological_target": "DYRK2A (Homo sapiens, UniProt Q92630)", "assay": "DSF selectivity screening", "settings": "10 μM compound", "protocol": "as §1"}, "EPHA2A": {"biological_target": "EPHA2A (Homo sapiens, UniProt P29317)", "assay": "DSF selectivity screening", "settings": "10 μM compound", "protocol": "as §1"}, "EPHA4A": {"biological_target": "EPHA4A (Homo sapiens, UniProt P54764)", "assay": "DSF selectivity screening", "settings": "10 μM compound", "protocol": "as §1"}, "EPHA7A": {"biological_target": "EPHA7A (Homo sapiens, UniProt Q15375)", "assay": "DSF selectivity screening", "settings": "10 μM compound", "protocol": "as §1"}, "FGFR3A": {"biological_target": "FGFR3A (Homo sapiens, UniProt P22607)", "assay": "DSF selectivity screening", "settings": "10 μM compound", "protocol": "as §1"}, "FLT1A": {"biological_target": "FLT1A (Homo sapiens, UniProt P17948)", "assay": "DSF selectivity screening", "settings": "10 μM compound", "protocol": "as §1"}, "GSK3BB": {"biological_target": "GSK3BB (Homo sapiens, UniProt P49841)", "assay": "DSF selectivity screening", "settings": "10 μM compound", "protocol": "as §1"}, "MAP3K5A": {"biological_target": "MAP3K5A (Homo sapiens, UniProt Q99683)", "sequence (Q99683 659-951)": "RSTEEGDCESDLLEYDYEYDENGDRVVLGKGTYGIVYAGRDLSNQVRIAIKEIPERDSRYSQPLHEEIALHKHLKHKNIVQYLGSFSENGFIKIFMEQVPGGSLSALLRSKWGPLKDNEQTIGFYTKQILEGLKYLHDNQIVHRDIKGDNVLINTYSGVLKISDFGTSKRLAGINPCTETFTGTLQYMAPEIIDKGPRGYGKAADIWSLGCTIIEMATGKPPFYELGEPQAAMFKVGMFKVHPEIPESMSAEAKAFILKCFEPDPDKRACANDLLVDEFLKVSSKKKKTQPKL", "assay": "DSF selectivity screening", "settings": "10 μM compound", "protocol": "as §1"}, "MAPK15A": {"biological_target": "MAPK15A (Homo sapiens, UniProt Q8TD08)", "assay": "DSF selectivity screening", "settings": "10 μM compound", "protocol": "as §1"}, "MAPKAPK2A": {"biological_target": "MAPKAPK2A (Homo sapiens, UniProt P49137)", "assay": "DSF selectivity screening", "settings": "10 μM compound", "protocol": "as §1"}, "MARK3A": {"biological_target": "MARK3A (Homo sapiens, UniProt P27448)", "sequence (P27448 48-370)": "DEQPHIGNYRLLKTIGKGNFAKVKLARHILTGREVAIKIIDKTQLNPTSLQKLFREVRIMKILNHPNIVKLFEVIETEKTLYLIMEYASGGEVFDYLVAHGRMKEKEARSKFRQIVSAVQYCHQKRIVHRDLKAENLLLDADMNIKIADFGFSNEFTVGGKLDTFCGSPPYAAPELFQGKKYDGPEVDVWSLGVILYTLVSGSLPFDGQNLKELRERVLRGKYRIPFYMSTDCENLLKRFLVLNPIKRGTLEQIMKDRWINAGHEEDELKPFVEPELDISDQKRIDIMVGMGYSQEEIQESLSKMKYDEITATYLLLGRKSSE", "assay": "DSF selectivity screening", "settings": "10 μM compound", "protocol": "as §1"}, "MST3A": {"biological_target": "MST3A (Homo sapiens, UniProt Q9Y6E0)", "assay": "DSF selectivity screening", "settings": "10 μM compound", "protocol": "as §1"}, "NEK2": {"biological_target": "NEK2 (Homo sapiens, UniProt P51955)", "sequence (P51955 1-271)": "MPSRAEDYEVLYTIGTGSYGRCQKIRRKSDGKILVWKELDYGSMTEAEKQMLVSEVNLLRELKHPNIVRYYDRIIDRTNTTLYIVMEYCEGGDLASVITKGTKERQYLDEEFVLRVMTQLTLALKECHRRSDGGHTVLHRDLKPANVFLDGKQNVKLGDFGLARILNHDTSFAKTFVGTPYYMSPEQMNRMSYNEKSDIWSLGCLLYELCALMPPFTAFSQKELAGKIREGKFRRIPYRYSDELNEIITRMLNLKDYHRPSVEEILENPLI", "assay": "DSF selectivity screening", "settings": "10 μM compound", "protocol": "as §1"}, "NQO2A": {"biological_target": "NQO2A (Homo sapiens, UniProt P16083)", "sequence (P16083 whole entry)": "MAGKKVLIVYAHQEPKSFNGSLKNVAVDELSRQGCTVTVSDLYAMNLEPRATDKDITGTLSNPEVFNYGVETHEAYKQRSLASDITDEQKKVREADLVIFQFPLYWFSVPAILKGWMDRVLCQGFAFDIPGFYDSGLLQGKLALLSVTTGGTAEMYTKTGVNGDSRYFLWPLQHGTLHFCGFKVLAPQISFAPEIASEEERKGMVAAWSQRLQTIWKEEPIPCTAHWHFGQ", "assay": "DSF selectivity screening", "settings": "10 μM compound", "protocol": "as §1"}, "PDK4A": {"biological_target": "PDK4A (Homo sapiens, UniProt Q16654)", "sequence (Q16654 whole entry)": "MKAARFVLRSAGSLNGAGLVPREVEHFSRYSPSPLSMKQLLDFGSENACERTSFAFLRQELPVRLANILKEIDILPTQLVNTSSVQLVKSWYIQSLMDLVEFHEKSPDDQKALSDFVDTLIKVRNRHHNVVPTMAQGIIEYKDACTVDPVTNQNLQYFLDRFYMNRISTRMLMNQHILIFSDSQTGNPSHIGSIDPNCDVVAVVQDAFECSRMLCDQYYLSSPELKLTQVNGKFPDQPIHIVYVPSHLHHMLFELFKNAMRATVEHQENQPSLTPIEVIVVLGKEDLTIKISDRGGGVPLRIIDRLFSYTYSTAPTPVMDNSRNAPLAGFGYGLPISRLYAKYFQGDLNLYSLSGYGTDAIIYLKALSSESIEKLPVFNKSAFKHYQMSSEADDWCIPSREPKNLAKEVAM", "assay": "DSF selectivity screening", "settings": "10 μM compound", "protocol": "as §1"}, "PIM1A": {"biological_target": "PIM1A (Homo sapiens, UniProt P11309)", "assay": "DSF selectivity screening", "settings": "10 μM compound", "protocol": "as §1"}, "PIM3A": {"biological_target": "PIM3A (Homo sapiens, UniProt Q86V86)", "assay": "DSF selectivity screening", "settings": "10 μM compound", "protocol": "as §1"}, "PLK4A": {"biological_target": "PLK4A (Homo sapiens, UniProt O00444)", "assay": "DSF selectivity screening", "settings": "10 μM compound", "protocol": "as §1"}, "RIOK1A": {"biological_target": "RIOK1A (Homo sapiens, UniProt Q9BRS2)", "assay": "DSF selectivity screening", "settings": "10 μM compound", "protocol": "as §1"}, "STK10A": {"biological_target": "STK10A (Homo sapiens, UniProt O94804)", "assay": "DSF selectivity screening", "settings": "10 μM compound", "protocol": "as §1"}, "STK39A": {"biological_target": "STK39A (Homo sapiens, UniProt Q9UEW8)", "assay": "DSF selectivity screening", "settings": "10 μM compound", "protocol": "as §1"}, "STK3A": {"biological_target": "STK3A (Homo sapiens, UniProt Q13188)", "sequence (Q13188 16-313)": "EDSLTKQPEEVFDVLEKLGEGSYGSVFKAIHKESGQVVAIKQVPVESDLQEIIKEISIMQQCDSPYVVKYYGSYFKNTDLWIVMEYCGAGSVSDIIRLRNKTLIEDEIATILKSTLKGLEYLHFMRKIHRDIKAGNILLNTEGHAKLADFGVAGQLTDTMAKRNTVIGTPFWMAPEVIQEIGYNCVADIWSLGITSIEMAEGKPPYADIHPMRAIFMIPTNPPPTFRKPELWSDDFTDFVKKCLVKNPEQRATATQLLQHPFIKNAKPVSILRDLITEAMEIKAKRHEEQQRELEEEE", "assay": "DSF selectivity screening", "settings": "10 μM compound", "protocol": "as §1"}, "TAF1A": {"system": "TAF1A", "assay": "DSF selectivity screening", "settings": "10 μM compound", "protocol": "as §1"}, "[1]": {"biological_target": "468 kinases including some pathogenic mutants (Homo sapiens, UniProt O14578)", "sequence (O14578 whole entry, change not shown)": "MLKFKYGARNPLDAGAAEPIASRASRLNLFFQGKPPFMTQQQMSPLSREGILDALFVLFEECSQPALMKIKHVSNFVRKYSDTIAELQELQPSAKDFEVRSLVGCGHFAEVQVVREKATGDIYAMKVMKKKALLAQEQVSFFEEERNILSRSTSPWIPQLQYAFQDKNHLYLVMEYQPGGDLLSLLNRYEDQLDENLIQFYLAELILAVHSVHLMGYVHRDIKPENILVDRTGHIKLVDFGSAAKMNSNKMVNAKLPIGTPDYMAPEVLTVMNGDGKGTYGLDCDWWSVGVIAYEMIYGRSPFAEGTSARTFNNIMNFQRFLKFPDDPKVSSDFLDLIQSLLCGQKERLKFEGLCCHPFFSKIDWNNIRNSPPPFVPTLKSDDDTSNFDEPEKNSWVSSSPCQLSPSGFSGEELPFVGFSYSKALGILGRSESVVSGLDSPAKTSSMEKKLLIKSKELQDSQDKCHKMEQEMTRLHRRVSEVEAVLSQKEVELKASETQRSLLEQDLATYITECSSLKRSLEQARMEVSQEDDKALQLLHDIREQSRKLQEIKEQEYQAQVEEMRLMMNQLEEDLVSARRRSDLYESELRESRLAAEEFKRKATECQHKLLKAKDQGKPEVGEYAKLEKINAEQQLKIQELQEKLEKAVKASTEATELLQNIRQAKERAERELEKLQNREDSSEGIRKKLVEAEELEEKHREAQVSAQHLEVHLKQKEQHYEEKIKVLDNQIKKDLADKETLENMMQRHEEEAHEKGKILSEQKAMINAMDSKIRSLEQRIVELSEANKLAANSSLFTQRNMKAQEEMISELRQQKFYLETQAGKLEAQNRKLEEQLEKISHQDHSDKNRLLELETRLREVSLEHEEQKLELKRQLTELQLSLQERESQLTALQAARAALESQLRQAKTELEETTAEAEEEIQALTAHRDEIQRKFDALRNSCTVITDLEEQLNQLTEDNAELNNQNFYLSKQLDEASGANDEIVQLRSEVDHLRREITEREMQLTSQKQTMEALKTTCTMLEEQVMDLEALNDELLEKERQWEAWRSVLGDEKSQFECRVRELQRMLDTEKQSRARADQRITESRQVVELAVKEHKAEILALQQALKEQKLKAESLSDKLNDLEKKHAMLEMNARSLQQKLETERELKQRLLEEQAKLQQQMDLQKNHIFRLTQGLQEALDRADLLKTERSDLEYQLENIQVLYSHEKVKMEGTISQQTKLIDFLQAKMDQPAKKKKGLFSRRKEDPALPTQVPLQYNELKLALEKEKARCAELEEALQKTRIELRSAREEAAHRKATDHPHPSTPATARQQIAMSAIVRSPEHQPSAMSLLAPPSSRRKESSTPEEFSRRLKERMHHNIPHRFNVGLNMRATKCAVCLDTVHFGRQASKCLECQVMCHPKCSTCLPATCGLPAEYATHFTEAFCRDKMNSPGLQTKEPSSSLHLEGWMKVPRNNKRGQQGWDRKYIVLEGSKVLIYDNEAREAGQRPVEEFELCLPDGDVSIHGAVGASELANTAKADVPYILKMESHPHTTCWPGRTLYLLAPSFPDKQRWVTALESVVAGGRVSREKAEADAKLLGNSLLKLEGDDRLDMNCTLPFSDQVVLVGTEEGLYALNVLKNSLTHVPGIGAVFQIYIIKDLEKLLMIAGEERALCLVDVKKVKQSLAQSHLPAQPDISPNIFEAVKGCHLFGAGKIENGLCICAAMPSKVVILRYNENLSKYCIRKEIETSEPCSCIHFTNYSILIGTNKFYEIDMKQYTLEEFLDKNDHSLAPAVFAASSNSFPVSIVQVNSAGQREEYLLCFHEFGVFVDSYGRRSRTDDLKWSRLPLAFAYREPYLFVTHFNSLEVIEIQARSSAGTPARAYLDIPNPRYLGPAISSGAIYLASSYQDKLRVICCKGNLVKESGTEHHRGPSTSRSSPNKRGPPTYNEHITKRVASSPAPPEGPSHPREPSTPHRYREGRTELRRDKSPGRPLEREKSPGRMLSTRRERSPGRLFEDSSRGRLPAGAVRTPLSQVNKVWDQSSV", "assay": "biochemical", "settings": "CIT (Entrez CIT), 100 nM; read-out: Percent Control"}, "[2]": {"biological_target": "468 kinases including some pathogenic mutants (Homo sapiens, UniProt P08631)", "assay": "biochemical", "settings": "HCK (Entrez HCK), 100 nM; read-out: Percent Control"}, "[3]": {"biological_target": "468 kinases including some pathogenic mutants (Homo sapiens, UniProt P42336, E545A)", "assay": "biochemical", "settings": "read-out: Percent Control"}, "PIK3CA(M1043I)": {"biological_target": "PIK3CA(M1043I) (Homo sapiens, UniProt P42336, M1043I)", "assay": "biochemical", "settings": "read-out: Percent Control"}, "[4]": {"biological_target": "EGFR(L747-E749del, A750P) (Homo sapiens, UniProt P00533, A750P/DEL747-749)", "assay": "biochemical", "settings": "compound concentration 100 nM; Entrez EGFR; read-out: Percent Control"}}}
{"smiles": "CN1C(=O)[C@@H](N2CCc3c(nn(Cc4ccccc4)c3C(N)=O)C2=O)COc2cc(Cl)ccc21", "note": "[Compound 10, (S)-2-benzyl-6-(8-chloro-5-methyl-4-oxo-2,3,4,5-tetrahydrobenzo[b][1,4]oxazepin-3-yl)-7-oxo-4,5,6,7-tetrahydro-2H-pyrazolo[3,4-c]pyridine-3-carboxamide]", "values": [{"measurement": "ΔTm at 10 µM", "setting": "AAK1A", "result": 0.1, "unit": "°C"}, {"measurement": "ΔTm at 10 µM", "setting": "BMXA", "result": 0.1, "unit": "°C"}, {"measurement": "ΔTm at 10 µM", "setting": "CAMK1DA", "result": -0.2, "unit": "°C"}, {"measurement": "ΔTm at 10 µM", "setting": "CAMK1GA", "result": -0.2, "unit": "°C"}, {"measurement": "ΔTm at 10 µM", "setting": "CAMK4A", "result": 0.1, "unit": "°C"}, {"measurement": "ΔTm at 10 µM", "setting": "CASKA", "result": 0.1, "unit": "°C"}, {"measurement": "ΔTm at 10 µM", "setting": "CSNK2A1A", "result": -0.1, "unit": "°C"}, {"measurement": "ΔTm at 10 µM", "setting": "DAPK1A", "result": 0.1, "unit": "°C"}, {"measurement": "ΔTm at 10 µM", "setting": "DAPK3A", "result": -0.1, "unit": "°C"}, {"measurement": "ΔTm at 10 µM", "setting": "DYRK1AA", "result": 0, "unit": "°C"}, {"measurement": "ΔTm at 10 µM", "setting": "DYRK2A", "result": 0.1, "unit": "°C"}, {"measurement": "ΔTm at 10 µM", "setting": "EPHA2A", "result": 0, "unit": "°C"}, {"measurement": "ΔTm at 10 µM", "setting": "EPHA4A", "result": 0.2, "unit": "°C"}, {"measurement": "ΔTm at 10 µM", "setting": "EPHA7A", "result": -0.1, "unit": "°C"}, {"measurement": "ΔTm at 10 µM", "setting": "FGFR3A", "result": 0.1, "unit": "°C"}, {"measurement": "ΔTm at 10 µM", "setting": "FLT1A", "result": 0.2, "unit": "°C"}, {"measurement": "ΔTm at 10 µM", "setting": "GSK3BB", "result": 0.1, "unit": "°C"}, {"measurement": "ΔTm at 10 µM", "setting": "MAP3K5A", "result": 0, "unit": "°C"}, {"measurement": "ΔTm at 10 µM", "setting": "MAPK15A", "result": 0, "unit": "°C"}, {"measurement": "ΔTm at 10 µM", "setting": "MAPKAPK2A", "result": 0, "unit": "°C"}, {"measurement": "ΔTm at 10 µM", "setting": "MARK3A", "result": 0.3, "unit": "°C"}, {"measurement": "ΔTm at 10 µM", "setting": "MST3A", "result": -0.3, "unit": "°C"}, {"measurement": "ΔTm at 10 µM", "setting": "NEK2", "result": 1.3, "unit": "°C"}, {"measurement": "ΔTm at 10 µM", "setting": "NQO2A", "result": 0.6, "unit": "°C"}, {"measurement": "ΔTm at 10 µM", "setting": "PDK4A", "result": 0, "unit": "°C"}, {"measurement": "ΔTm at 10 µM", "setting": "PIM1A", "result": -0.9, "unit": "°C"}, {"measurement": "ΔTm at 10 µM", "setting": "PIM3A", "result": 0.5, "unit": "°C"}, {"measurement": "ΔTm at 10 µM", "setting": "PLK4A", "result": 0.2, "unit": "°C"}, {"measurement": "ΔTm at 10 µM", "setting": "RIOK1A", "result": 0.5, "unit": "°C"}, {"measurement": "ΔTm at 10 µM", "setting": "STK10A", "result": 0.4, "unit": "°C"}, {"measurement": "ΔTm at 10 µM", "setting": "STK39A", "result": 0.1, "unit": "°C"}, {"measurement": "ΔTm at 10 µM", "setting": "STK3A", "result": 0.2, "unit": "°C"}, {"measurement": "ΔTM", "setting": "TAF1A", "result": 0.3, "unit": "K"}, {"measurement": "remaining activity at 0.1 µM", "setting": "[1]", "result": 95, "unit": "%"}, {"measurement": "remaining activity at 0.1 µM", "setting": "[2]", "result": 61, "unit": "%"}, {"measurement": "remaining activity at 1 µM", "setting": "[3]", "result": 100, "unit": "%"}, {"measurement": "remaining activity at 1 µM", "setting": "PIK3CA(M1043I)", "result": 87, "unit": "%"}, {"measurement": "remaining activity at 0.1 µM", "setting": "[4]", "result": 100, "unit": "%"}]}
